According to PubChem BioAssay AID248 (DTP/NCI, 2004):
“And” between values parts separate entries of the source, which are not always exact repeats. Equal entries are not always repeated. Toxic doses and inconclusive results are not listed. No stated cut-off is given here; in the data, active means T/C of 150% or more; inactive means T/C below 125%.

Tested on: L1210 leukemia ip in BDF1 mice, survival T/C
Assay: NCI In Vivo Anticancer Drug Screen. Data for tumor model L1210 Leukemia (intraperitoneal) in B6D2F1 (BDF1) mice
Conditions: endpoint: mean survival time, higher = longer survival
Summary of the method: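 Ratio derived from survival: compound-dosed mice over vehicle-dosed mice, all bearing a transplantable tumor.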

[1] = dose: 100.0 mg/kg/injection, schedule: Q01DX009 (ip), vehicle: saline with Tween-80
[2] = dose: 200.0 mg/kg/injection, schedule: Q01DX009 (ip), vehicle: saline with Tween-80
[3] = dose: 400.0 mg/kg/injection, schedule: Q01DX009 (ip), vehicle: saline with Tween-80
[4] = dose: 100.0 mg/kg/injection, schedule: Q01DX009 (ip), vehicle: Klucel (hydroxypropylcellulose) (HPC)
[5] = dose: 100.0 mg/kg/injection, schedule: Q04DX002 (ip), vehicle: Klucel (hydroxypropylcellulose) (HPC)
[6] = dose: 200.0 mg/kg/injection, schedule: Q01DX009 (ip), vehicle: Klucel (hydroxypropylcellulose) (HPC)
[7] = dose: 200.0 mg/kg/injection, schedule: Q04DX002 (ip), vehicle: Klucel (hydroxypropylcellulose) (HPC)
[8] = dose: 100.0 mg/kg/injection, schedule: Q04DX003 (ip), vehicle: Klucel (hydroxypropylcellulose) (HPC)
[9] = dose: 200.0 mg/kg/injection, schedule: Q04DX003 (ip), vehicle: Klucel (hydroxypropylcellulose) (HPC)
[10] = dose: 400.0 mg/kg/injection, schedule: Q01DX009 (ip), vehicle: Klucel (hydroxypropylcellulose) (HPC)
[11] = dose: 400.0 mg/kg/injection, schedule: Q04DX003 (ip), vehicle: Klucel (hydroxypropylcellulose) (HPC)
[12] = dose: 100.0 mg/kg/injection, schedule: Q01DX001 (ip), vehicle: carboxymethylcellulose (CMC)
[13] = dose: 200.0 mg/kg/injection, schedule: Q01DX001 (ip), vehicle: carboxymethylcellulose (CMC)
[14] = dose: 400.0 mg/kg/injection, schedule: Q01DX001 (ip), vehicle: carboxymethylcellulose (CMC)
[15] = dose: 100.0 mg/kg/injection, schedule: Q04DX003 (ip), vehicle: saline
[16] = dose: 200.0 mg/kg/injection, schedule: Q04DX003 (ip), vehicle: saline
[17] = dose: 100.0 mg/kg/injection, schedule: Q04DX003 (ip), vehicle: saline with Tween-80
[18] = dose: 200.0 mg/kg/injection, schedule: Q04DX003 (ip), vehicle: saline with Tween-80
[19] = dose: 400.0 mg/kg/injection, schedule: Q04DX003 (ip), vehicle: saline with Tween-80

Measured: T/C

NS(=O)(=O)c1ccc(N=Cc2ccccc2)cc1
inactive: [1] 89 % of control | [2] 92 % of control | [3] 94 % of control

O=C(Nc1ccc([As](=O)(O)O)cc1)Nc1cccc(Cl)c1Cl
inactive: [4] 100 % of control | [5] 100 % of control | [6] 100 % of control | [7] 92 % of control | dose: 400.0 mg/kg/injection, schedule: Q04DX002 (ip), vehicle: Klucel (hydroxypropylcellulose) (HPC) 110 % of control

O=C(N/N=C/c1ccc(O)cc1)C(c1ccccc1)N1CCCCC1 (configuration not stated)
inactive: dose: 100.0 mg/kg/injection, schedule: Q01DX001 (ip), vehicle: other 102 % of control | dose: 200.0 mg/kg/injection, schedule: Q01DX001 (ip), vehicle: other 93 % of control | dose: 400.0 mg/kg/injection, schedule: Q01DX001 (ip), vehicle: other 96 % of control

COc1ccc(OC(=O)Nc2ccc(Cl)c(Cl)c2)cc1
inactive: [4] 102 % of control | [8] 95 % of control | [6] 106 % of control | [9] 95 % of control | [10] 95 % of control | [11] 102 % of control

NC(CSC1(c2ccc(Cl)cc2)c2ccccc2-c2ccccc21)C(=O)O (configuration not stated)
inactive: dose: 1.56 mg/kg/injection, schedule: Q01DX009 (ip), vehicle: other 98 % of control | dose: 3.12 mg/kg/injection, schedule: Q01DX009 (ip), vehicle: other 106 % of control | dose: 6.25 mg/kg/injection, schedule: Q01DX009 (ip), vehicle: other 100 % of control | dose: 12.5 mg/kg/injection, schedule: Q01DX009 (ip), vehicle: other 98 % of control and 105 % of control | dose: 25.0 mg/kg/injection, schedule: Q01DX009 (ip), vehicle: other 95 % of control | dose: 50.0 mg/kg/injection, schedule: Q01DX009 (ip), vehicle: other 100 % of control | dose: 100.0 mg/kg/injection, schedule: Q01DX009 (ip), vehicle: other 97 % of control

OC1c2ccccc2C(O)C2C3C=CC(C3)C12 (configuration not stated)
inactive: dose: 50.0 mg/kg/injection, schedule: Q01DX001 (ip), vehicle: carboxymethylcellulose (CMC) 87 % of control | [12] 97 % of control | [13] 100 % of control | [14] 97 % of control

CC(C)(SCc1ccccc1)C(NC(=O)OCc1ccccc1)C(=O)O (configuration not stated)
inactive: dose: 12.5 mg/kg/injection, schedule: Q01DX009 (ip), vehicle: DMSO 92 % of control | dose: 25.0 mg/kg/injection, schedule: Q01DX009 (ip), vehicle: DMSO 92 % of control | dose: 50.0 mg/kg/injection, schedule: Q01DX009 (ip), vehicle: DMSO 88 % of control | dose: 100.0 mg/kg/injection, schedule: Q04DX002 (ip), vehicle: DMSO 95 % of control | dose: 200.0 mg/kg/injection, schedule: Q04DX002 (ip), vehicle: DMSO 97 % of control

Nc1cccc2c1-c1ccccc1C2=O
inactive: dose: 50.0 mg/kg/injection, schedule: Q04DX002 (ip), vehicle: Klucel (hydroxypropylcellulose) (HPC) 103 % of control | [5] 88 % of control | [7] 103 % of control

c1ccc(SCCCCSc2ccccc2)cc1
inactive: dose: 75.0 mg/kg/injection, schedule: Q01DX009 (ip), vehicle: saline 107 % of control | dose: 75.0 mg/kg/injection, schedule: Q04DX003 (ip), vehicle: saline 95 % of control | dose: 150.0 mg/kg/injection, schedule: Q01DX009 (ip), vehicle: saline 90 % of control | dose: 150.0 mg/kg/injection, schedule: Q04DX003 (ip), vehicle: saline 100 % of control | dose: 300.0 mg/kg/injection, schedule: Q01DX009 (ip), vehicle: saline 93 % of control | dose: 300.0 mg/kg/injection, schedule: Q04DX003 (ip), vehicle: saline 97 % of control

COc1ccc(OC2CCCCC2OS(C)(=O)=O)cc1 (configuration not stated)
inactive: dose: 100.0 mg/kg/injection, schedule: Q01DX001 (ip), vehicle: Klucel (hydroxypropylcellulose) (HPC) 104 % of control | [4] 96 % of control | [8] 102 % of control | dose: 200.0 mg/kg/injection, schedule: Q01DX001 (ip), vehicle: Klucel (hydroxypropylcellulose) (HPC) 103 % of control | [6] 104 % of control | [9] 102 % of control | dose: 400.0 mg/kg/injection, schedule: Q01DX001 (ip), vehicle: Klucel (hydroxypropylcellulose) (HPC) 108 % of control | [10] 106 % of control | [11] 101 % of control

COC(=O)C(CCc1cc(OC)c(OC)c(OC)c1)C(C(=O)OC)C(=O)OC (configuration not stated)
inactive: [8] 87 % of control | [9] 94 % of control | [11] 89 % of control

Nc1[nH]c(=O)[nH]c(=O)c1N=Nc1ccc(S(=O)(=O)Nc2nccs2)cc1
inactive: dose: 100.0 mg/kg/injection, schedule: Q01DX001 (ip), vehicle: saline 98 % of control | dose: 200.0 mg/kg/injection, schedule: Q01DX001 (ip), vehicle: saline 100 % of control | dose: 400.0 mg/kg/injection, schedule: Q01DX001 (ip), vehicle: saline 102 % of control

N/N=C(\N)c1cn(C2OC(CO)C(O)C2O)c2ncnc(N)c12 (configuration not stated)
inactive: dose: 5.0 mg/kg/injection, schedule: Q01DX001 (ip), vehicle: carboxymethylcellulose (CMC) 109 % of control

CN1CCCCC1(Cc1ccccc1)Cc1ccccc1
inactive: dose: 50.0 mg/kg/injection, schedule: Q01DX009 (ip), vehicle: saline 102 % of control | dose: 100.0 mg/kg/injection, schedule: Q01DX009 (ip), vehicle: saline 90 % of control | [15] 106 % of control | [16] 95 % of control

O=C(COc1ccc(Cl)cc1Cl)Nc1ccc(Br)cc1
inactive: dose: 100.0 mg/kg/injection, schedule: Q04DX002 (ip), vehicle: gum acacia 103 % of control | dose: 200.0 mg/kg/injection, schedule: Q04DX002 (ip), vehicle: gum acacia 92 % of control | dose: 400.0 mg/kg/injection, schedule: Q04DX002 (ip), vehicle: gum acacia 89 % of control

O=c1[nH]c(=O)[nH]c(=O)[nH]1
inactive: [4] 100 % of control | [15] 90 % of control | [6] 91 % of control | [16] 90 % of control | [10] 101 % of control | dose: 400.0 mg/kg/injection, schedule: Q04DX003 (ip), vehicle: saline 98 % of control

Oc1ccc(C=Nc2ccccc2N=Cc2ccc(O)c(O)c2)cc1O
inactive: [1] 105 % of control | [17] 100 % of control | [2] 100 % of control | [18] 96 % of control | [3] 100 % of control | [19] 91 % of control

O=C(O)c1ccc(C(Cl)(Cl)Cl)cc1
inactive: dose: 50.0 mg/kg/injection, schedule: Q01DX009 (ip), vehicle: saline sonified 96 % of control | dose: 100.0 mg/kg/injection, schedule: Q01DX009 (ip), vehicle: saline sonified 115 % of control | [8] 102 % of control | dose: 200.0 mg/kg/injection, schedule: Q01DX009 (ip), vehicle: saline sonified 118 % of control | [9] 94 % of control

CC(C)(C)OC(=O)/N=N/C(=O)OC(C)(C)C
inactive: [12] 102 % of control | [13] 94 % of control | [14] 94 % of control

CCCCOC(=O)c1ccc(NC(=O)NC)cc1
inactive: [4] 100 % of control | [6] 101 % of control | [10] 101 % of control

NC(CO)C(O)c1ccc(N=Nc2ccc(O)cc2)cc1 (configuration not stated)
inactive: [17] 90 % of control

O=C(Cl)C1(Br)CC2c3ccccc3C1([N+](=O)[O-])c1ccccc12 (configuration not stated)
inactive: [4] 88 % of control | [8] 108 % of control | [6] 91 % of control | [9] 95 % of control | [10] 96 % of control | [11] 104 % of control

CCN(CC)C(=O)Nc1cccc(OC(=O)NC(C)(C)C)c1
inactive: [17] 99 % of control | [18] 103 % of control | [19] 93 % of control

CCOC(=O)/C=C(\C#N)CC(=O)OCC
inactive: dose: 50.0 mg/kg/injection, schedule: Q01DX005 (ip), vehicle: saline 102 % of control | dose: 100.0 mg/kg/injection, schedule: Q01DX005 (ip), vehicle: saline 102 % of control | dose: 200.0 mg/kg/injection, schedule: Q01DX005 (ip), vehicle: saline 96 % of control | dose: 400.0 mg/kg/injection, schedule: Q01DX005 (ip), vehicle: saline 94 % of control
